{"source": "patent US8658787B2", "about": "“Galacto-rhamnogalacturonate compositions for the treatment of non-alcoholic steatohepatitis and non-alcoholic fatty liver disease” (Galectin Therapeutics Inc., priority 2011, dated 2014)", "tested_on": "STAM mice", "assay": "STAM mouse model of steatohepatitis (diabetes induced, high fat diet), treatment with GR-MD-02", "format": "in vivo", "procedure": "The experimental model used in this example is the mouse in which diabetes was induced and a high fat diet was administered, a model that has been called STAM mice. […] This is a proven model in which the mice consistently develop NASH with hepatocyte fat accumulation, evidence of hepatocyte toxicity, portal and lobular inflammatory infiltrates, peri-sinusoidal fibrosis, advanced fibrosis with nodule formation, cirrhosis, and ultimately hepatocellular carcinoma in a certain percentage of animals.\nThe progression of disease appearance is fatty liver (FL) by five weeks of age, steatohepatitis (NASH) by 7 weeks of age, fibrosis (Fib) by 9 weeks of age, nodule formation (N) by 13 weeks of age, and some animals developing hepatocellular carcinoma (HC) by 16 weeks of age (FIG. 1).\nGR-MD-02, produced as described in Example 1, was given in a dose of 60 mg/kg twice weekly intravenously for four (4) weeks at the each of the starting times indicated. Early treatment was given for weeks 6 through 9 and late therapy was given for weeks 9 through 12.\nThe NFLD activity score was used to evaluate the severity of liver disease on histological sections of liver and gives points for three aspects of NASH pathology including, steatosis (0 (<5%), 1 (5-33%), 2 (33-66%), or 3 (>66%)), hepatocyte ballooning (0 (none), 1, (few), or […]), and lobular inflammation (0 (no foci), 1 (<2 foci/200× field), 2 (2-4 foci/200× field), or 3 (>4 foci/200× field)). The total number of points is the NFLD activity score.", "data": [{"substance": "galacto-rhamnogalacturonate [GR-MD-02]", "values": [{"measurement": "whole blood glucose", "setting": "60 mg/kg twice weekly i.v., early or late treatment schedule, vs vehicle control", "value": "no statistical differences"}, {"measurement": "changes in body weight", "setting": "60 mg/kg twice weekly intravenously, early (weeks 6-9) and late (weeks 9-12) treatment, vs vehicle (normal saline)", "value": "no difference in body weight"}, {"measurement": "Sirius red staining of liver histology", "setting": "early (6-9 weeks) and late (9-12 weeks) treatment groups, vs vehicle control", "value": "marked reduction in Sirius red staining"}, {"measurement": "collagen percent area (Sirius red, computer assisted morphometric analysis)", "setting": "early and late treatment groups and both combined, vs vehicle", "value": "markedly statistically significantly reduced"}, {"measurement": "NFLD activity score on liver histology (average)", "setting": "early treatment group (weeks 6-9), 60 mg/kg twice weekly i.v., vehicle average 5, p<0.01 vs vehicle", "value": 3}, {"measurement": "alpha-Smooth Muscle Actin in liver tissue (immunohistochemical staining, digital morphometry)", "setting": "marker for activated stellate cells, vs vehicle", "value": "marked reduction in alpha-Smooth Muscle Actin"}, {"measurement": "galectin-3 in liver tissue (immunohistochemical staining, digital morphometry)", "setting": "vs vehicle treated animals", "value": "marked reduction of galectin-3"}]}]}
